According to PubChem BioAssay (NCI):
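Five concentrations, 48 hours, 96-well plates. Definition used: TGI = concentration required for complete inhibition of growth.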

Key:
Test in all cases: DTP human tumour cell line panel, 48 h
K-562 leukemia = test system: K-562 leukemia
OVCAR-4 ovarian = test system: OVCAR-4 ovarian
786-0 renal = test system: 786-0 renal
UO-31 renal = test system: UO-31 renal
MOLT-4 leukemia = test system: MOLT-4 leukemia

Row | SMILES | TGI (K-562 leukemia) | TGI (OVCAR-4 ovarian) | TGI (786-0 renal) | TGI (UO-31 renal) | TGI (MOLT-4 leukemia)
1 | COC(=O)/C=C(\S/C(=C(/c1ccc(OC)cc1)n1cc(C(=O)OC)c(C(=O)OC)n1)c1ccc(OC)cc1)C(=O)OC | > 100 µM | 68.3 µM | 26.9 µM | 16 µM | > 100 µM
2 | COC(=O)c1cc(C#N)[nH]c1-c1cccs1 | > 100 µM | > 100 µM | > 100 µM | > 100 µM | > 100 µM
3 | CCOC(=O)Oc1cc2c(ccn2C)c2c1c1ccccc1n2C(=O)OCC | > 100 µM | > 100 µM | > 100 µM | > 100 µM | > 100 µM
4 | CC(C)=CCC[C@@H](C)C1=C(Nc2ccccc2)C(O)=C(C)C(=O)C1=O | > 39.9 µM | > 43.5 µM | > 48.5 µM | 15.5 µM | > 22.7 µM
5 | N#CC1=C(N)Nc2nc3ccccc3n2C1c1ccccc1 (configuration not stated) | > 100 µM |  | > 100 µM | > 100 µM | > 100 µM
6 | CC(=C(C(=O)O)C(=O)O)c1cc(-c2cccs2)cc(-c2ccc(Cl)cc2)c1O | > 53.6 µM | > 71.9 µM | 32.2 µM | 24.5 µM | 69.7 µM
7 | O=C(Nc1ccccc1)C(=O)C(C(=O)c1ccccc1)C(c1ccccc1)c1ccccc1 (configuration not stated) | > 10 µM | > 10 µM | > 10 µM |  | > 10 µM
8 | N#CC1=C(N2CCOCC2)CCC1 | > 100 µM | > 100 µM | > 100 µM | > 100 µM | > 100 µM
9 | C=CC(c1ccccc1)C1(O)c2cccc(O)c2C(=O)c2c(O)cccc21 (configuration not stated) | 37.7 µM | 33.2 µM | 31.1 µM | 41.6 µM | 46.8 µM
10 | N=C(N)C1CN(CC=O)C(=O)NC1=O (configuration not stated) | > 100 µM | > 100 µM | > 100 µM | > 100 µM | > 100 µM
11 | O=C1OC2(c3ccc(O)cc3Oc3cc(O)ccc32)c2c1c(-c1ccccc1)c(-c1ccccc1)c(-c1ccccc1)c2-c1ccccc1 | 70 µM | 80.7 µM | 75.6 µM | 63.7 µM | 56.9 µM
12 | C/C(=C/CNc1ncnc2c1ncn2CCC#N)CO | > 100 µM | > 100 µM | > 100 µM | > 100 µM | > 100 µM
13 | COc1ccccc1CNCc1nc2ccccc2[nH]1 | > 100 µM | > 100 µM | > 100 µM | > 100 µM | > 100 µM
14 | O=Cc1ccc2c(c1)CC1(C2)Cc2ccc(C=O)cc2C1 | 12.9 µM | > 69.7 µM | 32 µM | > 50.6 µM | 7.11 µM
15 | CCOC(=O)c1c(-c2ccccc2)[nH]c2ccc(Cl)cc2c1=O | > 100 µM | 44.8 µM | > 100 µM | 70.8 µM | > 100 µM
16 | COC(=O)c1nc2c3c(cccc3c1C(=O)OC)Nc1ccccc1-2 | > 100 µM | > 100 µM | > 100 µM | > 100 µM | > 100 µM
17 | Cc1nc2ccc(N=NN(C)C)cc2[nH]1 |  | > 100 µM | > 100 µM | > 100 µM | > 100 µM
